Measured values from the NIST ThermoML archive (doi:10.1016/j.fluid.2011.01.027).
± gives the expanded uncertainty stated by the source.

CCCCn1cc[n+](C)c1.O=S(=O)([O-])C(F)(F)F [1-butyl-3-methylimidazolium trifluoromethanesulfonate]
surface tension liquid-gas [mN/m]
Conditions	Wilhelmy plate method	du Nouy method
292.18 K	35.39 ± 0.09	–
292.24 K	–	35.4 ± 0.09
293.4 K	35.21 ± 0.18	–
293.45 K	–	35.17 ± 0.18
298.06 K	35.18 ± 0.09	–
298.12 K	–	35.2 ± 0.09
298.22 K	35.09 ± 0.18	–
298.27 K	–	35.1 ± 0.18
303.03 K	35.05 ± 0.09	–
303.09 K	–	35.09 ± 0.09
303.18 K	34.87 ± 0.17	–
303.2 K	–	34.98 ± 0.18
308.01 K	34.71 ± 0.17	–
308.06 K	34.83 ± 0.09	–
308.08 K	–	34.85 ± 0.09
313.26 K	34.65 ± 0.09	–
313.31 K	–	34.63 ± 0.09
313.58 K	–	34.59 ± 0.17
313.59 K	34.54 ± 0.17	–
318.1 K	–	34.44 ± 0.09
318.13 K	34.53 ± 0.09	–
318.51 K	34.35 ± 0.17	–
318.68 K	–	34.36 ± 0.17
322.87 K	34.34 ± 0.09	–
322.93 K	34.18 ± 0.17	–
322.99 K	–	34.22 ± 0.17
327.64 K	34.19 ± 0.09	34.08 ± 0.09
328.05 K	34.03 ± 0.17	–
328.09 K	–	33.8 ± 0.17
332.66 K	33.85 ± 0.17	–
332.74 K	–	33.82 ± 0.17
333.21 K	34.01 ± 0.09	–
333.25 K	–	33.89 ± 0.09
337.68 K	33.81 ± 0.09	–
337.83 K	33.74 ± 0.17	–
337.84 K	–	33.44 ± 0.17
337.92 K	–	33.73 ± 0.09
342.72 K	33.61 ± 0.08	–
343.12 K	–	33.47 ± 0.08
343.53 K	33.47 ± 0.17	–
343.61 K	–	33.41 ± 0.17
347.73 K	–	33.36 ± 0.08
347.79 K	33.54 ± 0.09	–
348.54 K	33.28 ± 0.17	–
348.64 K	–	32.9 ± 0.17
352.45 K	33.27 ± 0.08	–
352.7 K	–	33.08 ± 0.09
355.89 K	33 ± 0.17	–
356 K	–	32.82 ± 0.16

CCCCCCn1cc[n+](C)c1.O=S(=O)([O-])C(F)(F)F [1-hexyl-3-methylimidazolium trifluoromethanesulfonate]
surface tension liquid-gas [mN/m]
Conditions	Wilhelmy plate method	de Nouy ring method
293.98 K	32.58 ± 0.16	–
294.03 K	–	32.64 ± 0.16
298.11 K	–	32.37 ± 0.16
298.13 K	32.37 ± 0.16	–
303.23 K	32.17 ± 0.16	–
303.24 K	–	32.19 ± 0.16
308.28 K	31.99 ± 0.16	–
308.32 K	–	32.01 ± 0.17
313.29 K	31.8 ± 0.16	–
313.3 K	–	31.86 ± 0.16
318.29 K	–	31.66 ± 0.16
318.3 K	31.64 ± 0.16	–
323.49 K	–	31.42 ± 0.16
323.5 K	31.45 ± 0.16	–
328.04 K	31.35 ± 0.16	–
328.12 K	–	31.25 ± 0.16
333.26 K	31.09 ± 0.16	–
333.32 K	–	30.89 ± 0.15
337.85 K	30.92 ± 0.16	–
337.88 K	–	30.81 ± 0.15
342.94 K	30.72 ± 0.15	–
343.09 K	–	30.5 ± 0.15
347.58 K	30.55 ± 0.15	–
347.59 K	–	30.38 ± 0.15
355.44 K	30.28 ± 0.15	30.06 ± 0.15

CCCCCCn1cc[n+](C)c1.F[B-](F)(F)F [1-hexyl-3-methylimidazolium tetrafluoroborate]
surface tension liquid-gas [mN/m]
Conditions	Wilhelmy plate method	du Nouy ring method
268.58 K	39.81 ± 0.2	39.79 ± 0.2
273.34 K	39.52 ± 0.2	39.54 ± 0.2
277.72 K	39.29 ± 0.2	–
277.76 K	–	39.32 ± 0.2
282.51 K	39.04 ± 0.2	–
282.71 K	–	39.21 ± 0.2
288.13 K	38.71 ± 0.19	38.75 ± 0.19
292.87 K	38.47 ± 0.19	–
292.93 K	–	38.49 ± 0.19
298.07 K	38.2 ± 0.19	38.21 ± 0.19
303.15 K	37.88 ± 0.19	–
303.19 K	–	37.85 ± 0.19
308.22 K	–	37.66 ± 0.19
308.23 K	37.64 ± 0.19	–
313.35 K	37.32 ± 0.19	–
313.48 K	–	37.33 ± 0.19
318.39 K	–	37.08 ± 0.19
318.48 K	37.08 ± 0.19	–
323.32 K	–	36.83 ± 0.18
323.34 K	36.81 ± 0.18	–
328.17 K	36.53 ± 0.18	–
328.2 K	–	36.54 ± 0.18
333.22 K	36.25 ± 0.18	–
333.24 K	–	36.21 ± 0.18
337.92 K	36.01 ± 0.18	–
337.97 K	–	36 ± 0.18
343.79 K	35.68 ± 0.18	35.7 ± 0.18
348.5 K	35.44 ± 0.18	–
348.54 K	–	35.39 ± 0.18
356.17 K	34.99 ± 0.18	–
356.18 K	–	35 ± 0.18

CCn1cc[n+](C)c1.O=S(=O)([O-])C(F)(F)F [1-ethyl-3-methylimidazolium trifluoromethanesulfonate]
Conditions	surface tension liquid-gas [mN/m]
268.29 K, Wilhelmy plate method	41.39 ± 0.21
268.36 K, du Nouy ring method	41.4 ± 0.21
272.08 K, Wilhelmy plate method	41.28 ± 0.21
272.13 K, du Nouy ring method	41.3 ± 0.21
276.54 K, Wilhelmy plate method	41.1 ± 0.21
276.65 K, du Nouy ring method	41.16 ± 0.21
281 K, Wilhelmy plate method	40.96 ± 0.2
281.05 K, du Nouy ring method	41.1 ± 0.21
287.58 K, du Nouy ring method	40.79 ± 0.2
287.63 K, Wilhelmy plate method	40.69 ± 0.2
293 K, du Nouy ring method	40.74 ± 0.2
293.01 K, Wilhelmy plate method	40.52 ± 0.2
298.01 K, Wilhelmy plate method	40.43 ± 0.2
298.04 K, du Nouy ring method	40.39 ± 0.2
303.18 K, du Nouy ring method	40.18 ± 0.2
303.2 K, Wilhelmy plate method	40.24 ± 0.2
308.2 K, Wilhelmy plate method	40.07 ± 0.2
308.31 K, du Nouy ring method	40.01 ± 0.2
313.27 K, Wilhelmy plate method	39.93 ± 0.2
313.31 K, du Nouy ring method	39.75 ± 0.2
318.36 K, Wilhelmy plate method	39.68 ± 0.2
318.39 K, du Nouy ring method	39.83 ± 0.2
323.33 K, Wilhelmy plate method	39.5 ± 0.2
323.38 K, du Nouy ring method	39.38 ± 0.2
328.2 K, du Nouy ring method	39.44 ± 0.2
333.07 K, Wilhelmy plate method	39.16 ± 0.2
333.12 K, du Nouy ring method	39.24 ± 0.2
338.1 K, Wilhelmy plate method	39.03 ± 0.2
338.15 K, du Nouy ring method	39.02 ± 0.2
343.14 K, Wilhelmy plate method	38.85 ± 0.2
343.21 K, du Nouy ring method	38.85 ± 0.19
348.38 K, Wilhelmy plate method	38.65 ± 0.19
348.53 K, du Nouy ring method	38.62 ± 0.19
356.09 K, Wilhelmy plate method	38.37 ± 0.19
356.28 K, du Nouy ring method	38.31 ± 0.19

CCn1cc[n+](C)c1.F[B-](F)(F)F [1-ethyl-3-methylimidazolium tetrafluoroborate]
surface tension liquid-gas [mN/m]
Conditions	Wilhelmy plate method	du Nouy ring method
288.05 K	–	54.61 ± 0.06
288.06 K	54.61 ± 0.06	–
292.92 K	54.28 ± 0.06	–
292.93 K	–	54.55 ± 0.06
298.1 K	53.97 ± 0.06	–
298.12 K	–	54.01 ± 0.05
303.12 K	53.65 ± 0.05	–
303.13 K	–	53.96 ± 0.06
308.27 K	53.34 ± 0.05	53.77 ± 0.05
313.33 K	52.98 ± 0.05	–
313.43 K	–	53.05 ± 0.05
318.3 K	52.7 ± 0.05	–
318.35 K	–	52.86 ± 0.05
323.5 K	52.39 ± 0.05	–
323.53 K	–	52.54 ± 0.05
328.4 K	52.05 ± 0.05	–
328.54 K	–	52.18 ± 0.05
333.32 K	51.74 ± 0.05	–
333.48 K	–	51.87 ± 0.05
338.38 K	–	51.48 ± 0.05
338.39 K	51.4 ± 0.05	–
343.18 K	51.11 ± 0.05	–
343.32 K	–	51.11 ± 0.05
348.7 K	50.76 ± 0.05	–
348.78 K	–	50.74 ± 0.06
355.91 K	–	50.26 ± 0.05
355.99 K	50.27 ± 0.05	–
